Assay: xn = mol fraction of the nth substance listed
Settings: 100 kPa

CCCC[N+]1(C)CCCC1.N#C[C-](C#N)C#N + O
Settings	electrical conductivity [S/m]	viscosity [mPa·s]
288.15 K, x2 = 0.0718	0.723	40.02
288.15 K, x2 = 0.1358	0.799	35.64
288.15 K, x2 = 0.1942	0.872	32.15
288.15 K, x2 = 0.2886	0.993	27.21
288.15 K, x2 = 0.3569	1.09	24.1
288.15 K, x2 = 0.431	1.21	21.17
288.15 K, x2 = 0.5238	1.38	17.74
288.15 K, x2 = 0.6162	1.55	15
288.15 K, x2 = 0.7143	1.8	12.05
288.15 K, x2 = 0.7708	1.9	10.98
293.15 K, x2 = 0.0718	0.882	32.78
293.15 K, x2 = 0.1358	0.957	29.3
293.15 K, x2 = 0.1942	1.04	26.51
293.15 K, x2 = 0.2886	1.18	22.51
293.15 K, x2 = 0.3569	1.3	20
293.15 K, x2 = 0.431	1.44	17.55
293.15 K, x2 = 0.5238	1.63	14.75
293.15 K, x2 = 0.6162	1.86	12.41
293.15 K, x2 = 0.7143	2.14	9.96
293.15 K, x2 = 0.7708	2.26	9.06
298.15 K, x2 = 0.0718	1.05	27.26
298.15 K, x2 = 0.1358	1.13	24.45
298.15 K, x2 = 0.1942	1.23	22.18
298.15 K, x2 = 0.2886	1.39	18.9
298.15 K, x2 = 0.3569	1.52	16.78
298.15 K, x2 = 0.431	1.69	14.76
298.15 K, x2 = 0.5238	1.92	12.43
298.15 K, x2 = 0.6162	2.18	10.42
298.15 K, x2 = 0.7143	2.52	8.36
298.15 K, x2 = 0.7708	2.67	7.58
303.15 K, x2 = 0.0718	1.22	22.88
303.15 K, x2 = 0.1358	1.32	20.68
303.15 K, x2 = 0.1942	1.43	18.8
303.15 K, x2 = 0.2886	1.61	16.06
303.15 K, x2 = 0.3569	1.76	14.28
303.15 K, x2 = 0.431	1.96	12.58
303.15 K, x2 = 0.5238	2.22	10.62
303.15 K, x2 = 0.6162	2.52	8.87
303.15 K, x2 = 0.7143	2.93	7.1
303.15 K, x2 = 0.7708	3.09	6.47
308.15 K, x2 = 0.0718	1.42	19.58
308.15 K, x2 = 0.1358	1.53	17.69
308.15 K, x2 = 0.1942	1.65	16.13
308.15 K, x2 = 0.2886	1.85	13.82
308.15 K, x2 = 0.3569	2.03	12.3
308.15 K, x2 = 0.431	2.22	10.84
308.15 K, x2 = 0.5238	2.56	9.18
308.15 K, x2 = 0.6162	2.9	7.65
308.15 K, x2 = 0.7143	3.35	6.11
308.15 K, x2 = 0.7708	3.54	5.56
313.15 K, x2 = 0.0718	1.62	16.87
313.15 K, x2 = 0.1358	1.74	15.26
313.15 K, x2 = 0.1942	1.87	13.96
313.15 K, x2 = 0.2886	2.11	12
313.15 K, x2 = 0.3569	2.3	10.7
313.15 K, x2 = 0.431	2.54	9.44
313.15 K, x2 = 0.5238	2.89	8.02
313.15 K, x2 = 0.6162	3.28	6.68
313.15 K, x2 = 0.7143	3.81	5.31
313.15 K, x2 = 0.7708	4.02	4.83
318.15 K, x2 = 0.0718	1.84	14.68
318.15 K, x2 = 0.1358	1.97	13.34
318.15 K, x2 = 0.1942	2.12	12.27
318.15 K, x2 = 0.2886	2.37	10.52
318.15 K, x2 = 0.3569	2.6	9.39
318.15 K, x2 = 0.431	2.87	8.29
318.15 K, x2 = 0.5238	3.25	7.06
318.15 K, x2 = 0.6162	3.7	5.83
318.15 K, x2 = 0.7143	4.28	4.66
318.15 K, x2 = 0.7708	4.53	4.24
323.15 K, x2 = 0.0718	2.07	12.88
323.15 K, x2 = 0.1358	2.22	11.74
323.15 K, x2 = 0.1942	2.37	10.81
323.15 K, x2 = 0.2886	2.66	9.3
323.15 K, x2 = 0.3569	2.9	8.31
323.15 K, x2 = 0.431	3.19	7.34
323.15 K, x2 = 0.5238	3.63	6.28
323.15 K, x2 = 0.6162	4.12	5.16
323.15 K, x2 = 0.7143	4.78	4.13
323.15 K, x2 = 0.7708	5.06	3.75
328.15 K, x2 = 0.0718	2.31	11.39
328.15 K, x2 = 0.1358	2.48	10.41
328.15 K, x2 = 0.1942	2.65	9.6
328.15 K, x2 = 0.2886	2.96	8.28
328.15 K, x2 = 0.3569	3.21	7.41
328.15 K, x2 = 0.431	3.54	6.56
328.15 K, x2 = 0.5238	4.02	5.63
328.15 K, x2 = 0.6162	4.57	4.61
328.15 K, x2 = 0.7143	5.29	3.68
328.15 K, x2 = 0.7708	5.61	3.35
333.15 K, x2 = 0.0718	2.58	10.14
333.15 K, x2 = 0.1358	2.75	9.29
333.15 K, x2 = 0.1942	2.93	8.58
333.15 K, x2 = 0.2886	3.27	7.42
333.15 K, x2 = 0.3569	3.54	6.65
333.15 K, x2 = 0.431	3.91	5.89
333.15 K, x2 = 0.5238	4.43	5.07
333.15 K, x2 = 0.6162	5.01	4.15
333.15 K, x2 = 0.7143	5.83	3.3
333.15 K, x2 = 0.7708	6.17	3.01

— the CheMixHub ionic liquid set
